These results are taken from patent EP0937727A1, “Soluble crystalline cefuroxime axetil” (priority 1998, dated 1999).

Data set [1] can be described thus: Dissolution (solubility) test of the active ingredient from standardised tablets according to USP 23, p. 316. It counts as physicochemical. Conditions: test gemäß USP 23, nach 45 Minuten. From the text: Im Anschluß beschreibt USP 23, Seite 316 einen Test für die Bestimmung der Bioverfügbarkeit dieses, aus beiden Diastereomeren etwa im Verhältnis von 1:1 bestehenden amorphen Produktes. Hierzu wird die Löslichkeit des Wirkstoffes aus einer standardisierten Tablettenformulierung in […] bestimmt. Zuläßlich sind solche Produkte, bei denen in 15 Minuten mindestens 60% des angegebenen Gehaltes an Wirkstoff und innerhalb von 45 Minuten mindestens 75% des angegebenen Wirkstoffes aufgelöst sind.
Das Produkt gemäß EP-A1 0 757 991 läßt sich nach der dortigen Vorschrift erzeugen. Die Löslichkeit des Wirkstoffes (aus der tablettierten Form) wie im folgenden beschrieben und bestimmt nach dem Standardverfahren gem. USP 23, S. 316, erreicht jedoch nach 45 Minuten nur etwas mehr als 40 %.
Dann wurden mit dem so gewonnenen Wirkstoff einerseits, dem erfindungsgemäßen Wirkstoff andererseits Tabletten hergestellt, und zwar nach folgendem Verfahren: 305 mg kristallines Cefuroxim axetil wurden mit 50 mg Ac disol, 50 mg Avicel pH 105, 7,5 mg Aerosil 200, 2,5 mg Magnesiumstearat und 7,5 Explotab trocken vermischt. Das Gemisch wurde trocken verpreßt und granuliert. Das so erhaltene Granulat wurde mit 7,5 mg Explotab und 7,5 mg Natriumlaurylsulfat vermischt und das erhaltene Gemisch wurde dann zu Tabletten gepreßt.
Mit den so erhaltenen Tabletten wurde jeweils der Löslichkeitstest gemäß USP 23 durchgeführt. […]

The conditions of data set [2]: known crystalline form of the prior art; compared with the prescribed minimum (60% in 15 Minuten, 75% in 45 Minuten); cited from earlier work.

Each structure is given as a SMILES string. Where “and” joins values, the source holds several entries; their conditions need not be identical. Equal values may be shown once. Where only a bound is given, the exact number is not on record here.

With `CO/N=C(\C(=O)N[C@@H]1C(=O)N2C(C(=O)OC(C)OC(C)=O)=C(COC(N)=O)CS[C@H]12)c1ccco1` (single isomer, unassigned) [Beispiel 2], the “Löslichkeit (Grad der Auflösung des Wirkstoffes)” value in data set [1] (listed as kristalline Form von (R,S)-Cefuroxim axetil gemäß USP 23) is > 50% and ~75%.

Take `CO/N=C(\C(=O)N[C@@H]1C(=O)N2C(C(=O)OC(C)OC(C)=O)=C(COC(N)=O)CS[C@H]12)c1ccco1` (stereo partly drawn) [Produkt gemäß EP-A1 0 757 991, (R,S)-Cefuroxim axetil]: the “Löslichkeit (Grad der Auflösung des Wirkstoffes)” value in data set [1] is listed as > 40%. For `CO/N=C(\C(=O)N[C@@H]1C(=O)N2C(C(=O)OC(C)OC(C)=O)=C(COC(N)=O)CS[C@H]12)c1ccco1` (stereo partly drawn) [kristalline (R,S)-Cefuroxim axetil, (R,S)-Cefuroxim axetil], the “Löslichkeit im Test gemäß USP 23” value in data set [2] is given as “bei weitem nicht die vorgeschriebene Mindestlöslichkeit”.
